In ChEMBL document CHEMBL3046784, “Exploring QSAR of antiamoebic agents of isolated natural products by MLR, ANN, and RTO” (Med Chem Res, 2012):
≈ marks a conversion by molar mass, not a printed value.

System: Entamoeba histolytica
Experiment: Antiamoebic activity against Entamoeba histolytica
Type: functional, organism-based
Settings: Entamoeba histolytica; read-out: IC50

Row | IC50 | SMILES
1 | 7.1 mg/L (≈ 13.3 µM) | O=C(O)C1=CO[C@H](O[C@@H]2O[C@H](CO)[C@@H](O)[C@H](O)[C@H]2O)[C@H]2[C@@H]1C=C[C@@]21C=C(C(O)c2ccc(O)cc2)C(=O)O1 (stereo partly specified) [GAERTNERIC ACID]
2 | 4.3 mg/L (≈ 7.84 µM) | COC(=O)C1=CO[C@H](O[C@@H]2O[C@H](CO)[C@@H](O)[C@H](O)[C@H]2O)[C@H]2[C@@H]1C=C[C@@]21C=C(C(O)c2ccc(O)cc2)C(=O)O1 (stereo partly specified) [GAERTNEROSIDE]
3 | 159 mg/L (≈ 587 µM) | O=c1c(O)c(-c2ccccc2)oc2cc(O)cc(O)c12 [GALANGIN]
4 | 22.6 mg/L (≈ 123 µM) | COC(=O)c1cc(O)c(O)c(O)c1 [GALLIC ACID METHYL ESTER]
5 | 44.7 mg/L (≈ 99.7 µM) | O=c1cc(-c2ccc(O)c(O)c2)oc2cc(O[C@@H]3O[C@H](CO)[C@@H](O)[C@H](O)[C@H]3O)cc(O)c12 [GALUTEOLIN]
6 | 52 mg/L (≈ 90.2 µM) | Oc1ccc([C@]23Oc4cc(O)cc(O)c4[C@H](c4c(cc(O)c5c4O[C@H](c4cc(O)c(O)c(O)c4)[C@@H](O)C5)O2)[C@H]3O)cc1 [GERANIN C]
7 | 28.6 mg/L (≈ 35.1 µM) | Oc1ccc([C@H]2Oc3c(c(O)cc4c3[C@H]3c5c(O)cc6c(c5O[C@@](c5ccc(O)cc5)(O4)[C@@H]3O)[C@H]3c4c(O)cc(O)cc4O[C@@](c4ccc(O)cc4)(O6)[C@H]3O)C[C@@H]2O)cc1 [GERANIN D]
8 | 24.9 mg/L (≈ 62.9 µM) | C/C=C1\CN(C)CC[C@]23C(=O)C[C@@H]1[C@H]1CO[C@H](OC)C(=O)N(c4ccccc42)[C@@H]13 [HOLSTILINE]
9 | 144 mg/L (≈ 309 µM) | O=c1c(O[C@@H]2O[C@H](CO)[C@H](O)[C@H](O)[C@H]2O)c(-c2ccc(O)c(O)c2)oc2cc(O)cc(O)c12 [HYPEROSIDE]
10 | 6.88 mg/L (≈ 11.3 µM) | COc1cc2c3c(c1OC)Oc1ccc(cc1)C[C@H]1c4c(cc(OC)c5c4Oc4ccc(cc4O5)C[C@H]3N(C)CC2)CCN1C [INSULARINE]
11 | 24.1 mg/L (≈ 71.8 µM) | C/C=C1/CN2CC[C@]34c5ccccc5N(C(C)=O)[C@H]3[C@H](C=O)[C@H]1C[C@H]24 [ISORETULINAL]
12 | 21.9 mg/L (≈ 64.7 µM) | C/C=C1/CN2CC[C@]34c5ccccc5N(C(C)=O)C3[C@H](CO)[C@H]1C[C@H]24 (stereo partly specified) [ISORETULINE]
13 | 20.9 mg/L (≈ 33.8 µM) | C/C=C1/CN2CC[C@]34c5ccccc5N(C(C)=O)[C@H]3[C@H]([C@H]3OC[C@@H]5[C@H]6C[C@@H]7N(CC[C@@]78c7ccccc7N3[C@@H]58)C[C@H]6CC)[C@H]1C[C@H]24 [ISOSTRYCHNOBILINE]
14 | 10.4 mg/L (≈ 18.8 µM) | CC[C@H]1CN2CCC3c4ccc(O)c([C@@H]5CCCN5C)c4NC3[C@@H]2C[C@@H]1C[C@H]1c2[nH]c3ccccc3c2CCN1C (stereo partly specified) [ISOSTRYCHNOPENTAMINE]
15 | 6.22 mg/L (≈ 10.8 µM) | COc1ccc2cc1Oc1ccc(cc1)C[C@H]1c3c(cc(OC)c4c3Oc3cc5c(cc3O4)CCN(C)[C@H]5C2)CCN1C [ISOTRILOBINE]
16 | 64.7 mg/L (≈ 150 µM) | C[C@H]1O[C@H](Oc2c(-c3ccc(O)cc3)oc3cc(O)cc(O)c3c2=O)[C@@H](O)[C@@H](O)[C@@H]1O [KAEMPFEROL-3-O-RHAMNOSIDE]
17 | 72.5 mg/L (≈ 122 µM) | C[C@H]1O[C@H](OC[C@H]2O[C@@H](Oc3c(-c4ccc(O)cc4)oc4cc(O)cc(O)c4c3=O)[C@H](O)[C@@H](O)[C@@H]2O)[C@@H](O)[C@@H](O)[C@@H]1O [KAEMPFEROL-3-O-RUTINOSIDE]
18 | > 125 mg/L | C[C@H]1O[C@H](OC[C@H]2O[C@@H](Oc3cc(O)c4c(=O)c(O)c(-c5ccc(O)cc5)oc4c3)[C@H](O[C@@H]3O[C@H](CO)[C@@H](O)[C@H](O)[C@H]3O)[C@@H](O)[C@@H]2O)[C@@H](O)[C@@H](O)[C@@H]1O [KAEMPFEROL-7-O-RHAMNOSYL-SOPHOROSIDE]
19 | 7.93 mg/L (≈ 27.7 µM) | O=c1c(O)c(-c2ccc(O)cc2)oc2cc(O)cc(O)c12 [KAEMPFEROL]
20 | 12.5 mg/L (≈ 38.3 µM) | O=C(O)/C=C/c1ccccc1O[C@@H]1O[C@H](CO)[C@@H](O)[C@H](O)[C@H]1O [MELILOTOSIDE]
21 | 2.3 mg/L (≈ 3.98 µM) | COC(=O)C1=CO[C@@H](O[C@@H]2O[C@H](CO)[C@@H](O)[C@H](O)[C@H]2O)[C@H]2[C@@H]1C=C[C@@]21C=C(C(O)c2ccc(O)c(OC)c2)C(=O)O1 (stereo partly specified) [METHOXY-GAERTNEROSIDE]
22 | 16.6 mg/L (≈ 85.4 µM) | CO[C@H]1[C@H](O)[C@@H](O)[C@@H](O)[C@H](O)[C@@H]1O [METHYLINOSITOL]
23 | 0.398 mg/L (≈ 0.739 µM) | COc1ccc(/C=C/C(=O)O[C@H]2[C@@H]3C=CO[C@@H](O[C@@H]4O[C@H](CO)[C@@H](O)[C@H](O)[C@H]4O)[C@@H]3[C@@]3(CO)O[C@@H]23)cc1O [MINECOSIDE]
24 | 115 mg/L (≈ 362 µM) | O=c1c(O)c(-c2cc(O)c(O)c(O)c2)oc2cc(O)cc(O)c12 [MYRICETIN]
25 | 4.12 mg/L (≈ 9.23 µM) | C/C=C1/CN2CCc3c(n(C)c4ccccc34)[C@@H]2C[C@@H]1Cc1nccc2c1[nH]c1ccccc12 [NBETA-METHYL USAMBARENSINE]

Row | SMILES | IC50
26 | CC[C@](C)(O)C(=O)O[C@H]1C(=O)O[C@@H]2C[C@H]3C(C)=CC(=O)[C@@H](O)[C@]3(C)[C@H]3[C@@]4(O)OC[C@]32[C@@H]1[C@@H](C)[C@H]4O [GLAUCARUBINONE] | 0.168 mg/L (≈ 0.34 µM)
27 | CC[C@](C)(O)C(=O)O[C@H]1C(=O)O[C@@H]2C[C@H]3C(C)=C[C@H](O)[C@@H](O)[C@]3(C)[C@H]3[C@]4(O)OC[C@]32[C@@H]1[C@@H](C)[C@H]4O [GLAUCARUBIN] | 1.57 mg/L (≈ 3.16 µM)
28 | CC1=CC(=O)[C@@H](O)[C@]2(C)[C@H]3[C@]4(O)OC[C@]35[C@H]([C@@H](C)[C@H]4O)[C@@H](O)C(=O)O[C@@H]5C[C@@H]12 [GLAUCARUBOLONE] | 0.12 mg/L (≈ 0.304 µM)
29 | CC1=C[C@H](O)[C@@H](O)[C@]2(C)[C@H]3[C@@]4(O)OC[C@]35[C@H]([C@@H](C)[C@H]4O)[C@@H](O)C(=O)O[C@@H]5C[C@@H]12 [GLAUCARUBOL] | 2 mg/L (≈ 5.04 µM)
30 | Cc1cc2c(C(C)C)c(O)c(O)c(C=O)c2c(O)c1-c1c(C)cc2c(C(C)C)c(O)c(O)c(C=O)c2c1O [GOSSYPOL] | 0.00777 mg/L (≈ 0.015 µM)
31 | CC(=O)O[C@H]1C(=O)O[C@@H]2C[C@H]3C(C)=CC(=O)[C@@H](O)[C@]3(C)[C@H]3[C@]4(O)OC[C@]32[C@@H]1[C@@H](C)[C@H]4O [HOLACANTHONE] | 0.162 mg/L (≈ 0.371 µM)
32 | C[C@@H]1N=C[C@]23C[C@@H](O)[C@H]4[C@@H](CCC5=CC(=O)C=C[C@@]54C)[C@@H]2CC[C@H]13 [HOLANAMINE] | 3.96 mg/L (≈ 12.2 µM)
33 | C/C=C1/CN(C)CC[C@]23C(=O)C[C@@H]1[C@H]1CO[C@H](O)C(=O)N(c4ccccc42)[C@@H]13 [HOLSTIINE] | 24.8 mg/L (≈ 64.9 µM)
34 | COc1ccc2cc1Oc1ccc(cc1)C[C@H]1c3c(cc(OC)c(O)c3Oc3cc4c(cc3OC)CCN(C)[C@@H]4C2)CCN1C [HOMOAROMOLINE] | 10.5 mg/L (≈ 17.3 µM)
35 | COc1cc2c3c(c1O)Oc1ccc(cc1)C[C@@H]1c4c(cc(OC)c(O)c4Oc4ccc(cc4)C[C@H]3N(C)CC2)CCN1C [ISOCHONDODENDRINE] | 10.5 mg/L (≈ 17.7 µM)
36 | CN[C@H]1CC[C@@]2(C)C(=CC[C@H]3[C@@H]4CC[C@@H]5[C@H](C)N(C)C[C@@]54CC[C@@H]32)C1 [ISOCONESSIMINE] | 20.9 mg/L (≈ 61 µM)
37 | COc1ccc2c(c1O)-c1c(OC)c(OC)cc3c1[C@H](C2)N(C)CC3 [ISOCORYDINE] | 50.1 mg/L (≈ 147 µM)
38 | COc1ccc2cc1Oc1ccc(cc1)C[C@@H]1c3cc(c(OC)cc3CCN1C)Oc1c(OC)c(OC)cc3c1[C@H](C2)N(C)CC3 [ISOTETRANDRINE] | 13.8 mg/L (≈ 22.2 µM)
39 | O=c1cc(-c2ccc(O)c(O)c2)oc2cc(O)cc(O)c12 [LUTEOLIN] | 17.8 mg/L (≈ 62.2 µM)
40 | O=C1C[C@@H](c2ccc(O)cc2)Oc2cc(O)cc(O)c21 [NARINGENIN] | 92.2 mg/L (≈ 339 µM)
41 | COc1cc2c3c(c1O)-c1c(ccc(OC)c1OC)C[C@@H]3NCC2 [NORCORYDINE] | 50 mg/L (≈ 153 µM)
